Columns and labels:
Assay in all cases: relative IC50 (inflection point of fitted viability curve, relative to fitted max inhibition); higher = less sensitive
Details in all cases: 72 h
KHYG-1 (IL-2 2.5 ng/mL) = system: KHYG-1 (IL-2 2.5 ng/mL)
Description: (§1)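 Drug sensitivity and resistance testing: 5 concentrations over a 10,000-fold range, 72 h at 37 °C, viability by CellTiter-Glo normalised to DMSO and benzethonium chloride controls. IC50 is the inflection point of a logistic fit (min fixed at 0, max fitted), so it is relative to the fitted maximal inhibition. Kept only where fitted max inhibition is at least 50%.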

IMC-1 (IL-2 20 ng/mL) = system: IMC-1 (IL-2 20 ng/mL)
Description: as §1

SNK-6 (IL-2 2.5 ng/mL) = system: SNK-6 (IL-2 2.5 ng/mL)
Description: as §1

NK-YS (IL-2 2.5 ng/mL) = system: NK-YS (IL-2 2.5 ng/mL)
Description: as §1

DERL-7 (IL-2 2.5 ng/mL) = system: DERL-7 (IL-2 2.5 ng/mL)
Description: as §1

KAI3 (IL-2 2.5 ng/mL) = system: KAI3 (IL-2 2.5 ng/mL)
Description: as §1

[1] = system: normal primary NK cells, pool 3 (3 donors) (IL-2 2.5 ng/mL)
Description: as §1

NKL (IL-2 2.5 ng/mL) = system: NKL (IL-2 2.5 ng/mL)
Description: as §1

[2] = system: normal primary NK cells, pool 1 (3 donors), resting (IL-2 0 ng/mL)
Description: as §1

NK-92 (IL-2 2.5 ng/mL) = system: NK-92 (IL-2 2.5 ng/mL)
Description: as §1

YT (IL-2 2.5 ng/mL) = system: YT (IL-2 2.5 ng/mL)
Description: as §1

[3] = system: normal primary NK cells, pool 1 (3 donors) (IL-2 2.5 ng/mL)
Description: as §1

[4] = system: normal primary NK cells, pool 2 (3 donors) (IL-2 2.5 ng/mL)
Description: as §1

Compound | relative IC50 (KHYG-1 (IL-2 2.5 ng/mL)) | relative IC50 (IMC-1 (IL-2 20 ng/mL)) | relative IC50 (SNK-6 (IL-2 2.5 ng/mL)) | relative IC50 (NK-YS (IL-2 2.5 ng/mL)) | relative IC50 (DERL-7 (IL-2 2.5 ng/mL)) | relative IC50 (KAI3 (IL-2 2.5 ng/mL)) | relative IC50 [1] | relative IC50 (NKL (IL-2 2.5 ng/mL)) | relative IC50 [2] | relative IC50 (NK-92 (IL-2 2.5 ng/mL)) | relative IC50 (YT (IL-2 2.5 ng/mL)) | relative IC50 [3] | relative IC50 [4]
CCn1cc(-c2ccnc3[nH]c(-c4cccc(CN(C)C)c4)cc23)c(-c2ccc(NC(=O)N(C)C)cc2)n1 | 39.7 nM | 158 nM | 4.21 nM | 12.3 nM | 17.6 nM |  |  |  |  |  |  |  | 
CN1CCC(COc2cnc(-c3cccc(Cn4nc(-c5cccc(C#N)c5)ccc4=O)c3)nc2)CC1 |  | > 1000 nM |  | > 1000 nM |  | > 1000 nM | > 1000 nM |  |  |  |  |  | 
COCC(=O)NC/C=C/c1ccc2ncnc(Nc3ccc(Oc4ccc(C)nc4)c(C)c3)c2c1 |  | 2920 nM | 3270 nM |  |  | 1870 nM |  | 2070 nM | 834 nM | 1470 nM |  |  | 
C[C@@]1(C(=O)Nc2ccc(F)nc2)CCCN1c1nc(Nc2cc(C3CC3)n[nH]2)c2cccn2n1 | 1150 nM | 2850 nM | 630 nM | 412 nM | 290 nM |  |  |  | 3420 nM | 617 nM | 904 nM |  | 
Cn1cc(-c2ccc3nnc(C(F)(F)c4ccc5ncccc5c4)n3n2)cn1 |  |  |  |  |  |  |  |  | > 10000 nM |  |  |  | 
N#Cc1ccc(COC[C@H]2O[C@@H](n3c(NCc4ccc(Cl)c(Cl)c4)nc4c(N)ncnc43)[C@H](O)[C@@H]2O)cc1 | 1810 nM | 3860 nM | 1150 nM | 1310 nM |  |  | > 10000 nM |  |  |  | 1710 nM |  | 
Nc1nccc(-c2c(-c3ccc(F)cc3)ncn2C2CCCCC2)n1 |  |  | 2170 nM |  |  | 39.1 nM |  |  |  |  |  |  | 
Cc1ccccc1C(C(=O)NC1CCCCC1)N(C(=O)Cn1ccnc1C)c1cccc(F)c1 (configuration not stated) [AGI-5198] |  |  |  |  |  |  |  |  |  |  |  | > 10000 nM | 
O=C(Nc1cccc(C(F)(F)F)c1)Nc1cc(S(=O)(=O)NC2CC2)ccc1-c1ccsc1 [AGI-6780] |  |  |  |  |  |  |  |  |  | 1390 nM |  |  | 
COc1cc(N2CCC(N3CCN(C)CC3)CC2)ccc1Nc1ncnc(Nc2ccccc2S(=O)(=O)C(C)C)n1 [ASP3026] | 1900 nM | 3350 nM |  |  | 3110 nM |  |  |  |  |  | 1830 nM |  | 
CNC(=O)c1cccc(-c2ccc3c(N4CCOC[C@@H]4C)nc(N4CCOC[C@@H]4C)nc3n2)c1 [AZD2014] | 714 nM |  | 117 nM | 266 nM | 137 nM | 24.8 nM |  | 36.7 nM |  | 317 nM | 295 nM |  | 
C[C@@H](Nc1cc(F)cc(F)c1)c1cc(C(=O)N(C)C)cc2c(=O)cc(N3CCOCC3)oc12 [AZD-8186] |  | > 1000 nM |  |  |  |  | > 1000 nM | > 1000 nM |  |  |  |  | 
CCN1CCN(Cc2ccc(Nc3ncc(F)c(-c4cc(F)c5nc(C)n(C(C)C)c5c4)n3)nc2)CC1 [Abemaciclib] | 236 nM | 978 nM |  | 446 nM | 130 nM |  |  |  | > 2500 nM |  |  |  | 743 nM
CCc1cc2c(cc1N1CCC(N3CCOCC3)CC1)C(C)(C)c1[nH]c3cc(C#N)ccc3c1C2=O [Alectinib] |  |  | > 1000 nM |  |  |  | > 1000 nM |  |  |  |  |  | 
O=C1CN2Cc3c(ccc(Cl)c3Cl)N=C2N1 [Anagrelide] |  |  |  |  |  |  | > 10000 nM |  |  |  |  |  | 
Nc1ncn([C@@H]2O[C@H](CO)[C@@H](O)[C@H]2O)c(=O)n1 [Azacitidine] | 1520 nM | 3620 nM | 384 nM | 1600 nM | 1440 nM | 1150 nM |  | 3860 nM |  | 1470 nM |  |  | 
CC[C@@H]1C(=O)N(C)c2cnc(Nc3ccc(C(=O)NC4CCN(C)CC4)cc3OC)nc2N1C1CCCC1 [BI 2536] | 22.1 nM | 14.8 nM | 4.57 nM | 13.5 nM | 8.62 nM | 8.37 nM |  | 9.81 nM |  | 11.4 nM | 26.3 nM |  | 218 nM
Nc1cc(C(F)(F)F)c(-c2cc(N3CCOCC3)nc(N3CCOCC3)n2)cn1 [Buparlisib] | 781 nM | 3900 nM | 42.9 nM | 520 nM | 1070 nM | 887 nM |  | 269 nM |  | 734 nM | 1210 nM |  | 
CS(=O)(=O)OCCCCOS(C)(=O)=O [Busulfan] | 26600 nM | 26900 nM | 15800 nM | 29600 nM |  | 24600 nM |  | 27300 nM |  | 36400 nM |  |  | 35600 nM
CC[C@@]1(O)C(=O)OCc2c1cc1n(c2=O)Cc2cc3ccccc3nc2-1 [Camptothecin] | 4.95 nM | 14.2 nM | 3.1 nM | 3.56 nM | 9.21 nM | 0.88 nM | 278 nM | 1.47 nM |  | 5.92 nM | 18.4 nM |  | 547 nM
O=C(O)C1(C(=O)O)CCC1.[NH2-].[NH2-].[Pt+2] [Carboplatin] |  | 8070 nM |  |  |  |  | 16000 nM |  |  |  |  |  | 16600 nM
COc1cc2c(Oc3ccc4[nH]c(C)cc4c3F)ncnc2cc1OCCCN1CCCC1 [Cediranib] |  |  |  |  |  |  | > 1000 nM |  |  |  |  |  | 
O=P1(N(CCCl)CCCl)NCCCO1 (configuration not stated) [Cyclophosphamide] | > 40000 nM | > 40000 nM |  |  |  |  |  |  | 5790 nM |  | > 40000 nM |  | 
Nc1ncn([C@H]2C[C@H](O)[C@@H](CO)O2)c(=O)n1 [Decitabine] | 678 nM |  | 31.8 nM | 474 nM | 436 nM | 26.9 nM |  |  |  | 392 nM |  |  | 
CC(=O)O[C@@]12CO[C@@H]1C[C@H](O)[C@@]1(C)C(=O)[C@H](O)C3=C(C)[C@@H](OC(=O)[C@H](O)[C@@H](NC(=O)OC(C)(C)C)c4ccccc4)C[C@@](O)([C@@H](OC(=O)c4ccccc4)[C@H]21)C3(C)C [Docetaxel] | 3.9 nM | 3.14 nM | 0.8 nM | 2.02 nM | 3.18 nM | 2.14 nM |  | 1.84 nM |  | 10.9 nM | 2.24 nM |  | 
CN1CCN(c2ccc3nc(-c4c(N)c5c(F)cccc5[nH]c4=O)[nH]c3c2)CC1 [Dovitinib] |  | > 10000 nM | > 10000 nM |  |  |  |  | 1900 nM | 1860 nM |  |  |  | 
Cc1cc(C)c(CNC(=O)c2cc(-c3ccc(CN4CCOCC4)cc3)cc3c2cnn3C2CCCC2)c(=O)[nH]1 [EPZ-5687] |  | > 10000 nM |  |  |  |  | > 10000 nM | > 10000 nM |  | > 10000 nM |  |  | > 10000 nM
C[C@]12CC[C@@H]3c4ccc(OC(=O)N(CCCl)CCCl)cc4CC[C@H]3[C@@H]1CC[C@@H]2O [Estramustine] |  | > 10000 nM |  |  |  |  | > 10000 nM |  |  |  |  |  | 
C=C1C[C@@H]2[C@H](CC[C@]3(C)C(=O)CC[C@@H]23)[C@@]2(C)C=CC(=O)C=C12 [Exemestane] |  |  |  |  |  |  |  |  | 3290 nM |  |  |  | 
Cc1cnc(Nc2ccc(OCCN3CCCC3)cc2)nc1Nc1cccc(S(=O)(=O)NC(C)(C)C)c1 [Fedratinib] |  | 929 nM |  |  |  |  | 479 nM |  |  |  |  |  | 462 nM
